Data from US6921665B2, “Selective antibody targeting of undifferentiated stem cells” (Roslin Institute (Edinburgh), priority 2001, dated 2005).

Columns and labels:
hTERT expression = experiment: RT-PCR for hTERT expression after differentiation factors; format: cell-based, human; details: after exposure of hES cells to the factor
Method: For radioactive relative quantification of individual gene products, QuantumRNA™ Alternate18S Internal Standard primers (Ambion, Austin Tex., USA) were employed according to the manufacturer's instructions. Briefly, the linear range of amplification of a particular primer pair was determined, then coamplified with the appropriate mixture of alternate18S primers:competimers to yield PCR products with coinciding linear ranges. Before addition of AmpliTaq™ (Roche) to PCR reactions, the enzyme was pre-incubated with the TaqStar™ antibody (ProMega) according to manufacturer's instructions. Radioactive PCR reactions were analyzed on 5% non-denaturing polyacrylamide gels, dried, and exposed to phosphoimage screens (Molecular Dynamics) for 1 hour. Screens were scanned with a Molecular Dynamics Storm 860 and band intensities were quantified using ImageQuant™ software. Results are expressed as the ratio of radioactivity incorporated into the hTERT or OCT-4 band, standardized to the radioactivity incorporated into the 18s band.
Primers and amplification conditions for particular markers are as follows. […]

H9 cell line = experiment: Sensitivity of the H9 line to GCV after TPAC vector treatment; format: cell-based, human; details: subsequent studies
From the text: Thus, different hES cell lines respond to the TPAC vector.

[1] = system: Undifferentiated H1 cells; experiment: Cell viability (PI exclusion, cells in ES gate) of H1 hES cells after TPAC vector and/or GCV; format: cell-based, human; details: GCV alone
Method: (§1) Undifferentiated H1 cells were plated into 24 well plates (1 confluent well of a 6 well plate split into 24 wells of a 24 well plate). After 48 h, some wells were infected with the TPAC vector at an MOI of 30 or 100. Four h after addition of the viral vector, medium was exchanged for new mouse embryonic fibroblast conditioned medium (mEF-CM); some wells received medium supplemented with 30 μM ganciclovir (GCV). Cells exposed to GCV were re-fed with mEF-CM containing 30 μM GCV daily for 4 days. On days 2,3, and 4 after the initiation of GCV treatment, wells were harvested and analyzed by flow cytometry to assess changes in 1) total cell number and 2) cell viability (measured by PI exclusion).

[2] = system: TPAC vector treated hES cells; experiment: Titration of GCV in TPAC vector treated hES cells; format: cell-based, human; details: pGRN376 MOI 30; GCV 5-40 μM tested; day 2
Method: Undifferentiated Hi cells were plated into 24 well plates (1 confluent well of a 6 well plate split into 24 wells of a 24 well plate). After 48 h, some wells were infected with pGRN376 at an MOI of 30. Four h after addition of the viral vector, medium was exchanged for new mEF-CM; some wells received medium supplemented with 5, 10, 20, 30, or 40 μM ganciclovir (GCV). Cells exposed to GCV were re-fed with mEF-CM containing GCV daily for 2 days. On day 2 after the initiation of GCV treatment, wells were harvested and analyzed by flow cytometry to assess changes in total cell number, and cell viability (measured by PI exclusion).

[3] = system: tumor lines 143B, 293, HT1080, Bxpc-3', DAOY and NIH3T3; experiment: Ganciclovir treatment in vitro of tk/+ tumor lines carrying hTERT promoter/tk constructs; format: cell-based; details: cells carrying pGRN266, pGRN267 or pGRN268
Method: (§2) The ability of the hTERT promoter to specifically drive the expression of the thymidine kinase (tk) gene in tumor cells was tested using a variety of constructs: One construct, designated pGRN266, contains an EcoRI-FseI PCR fragment with the tk gene cloned into the EcoRI-FseI sites of pGRN263. pGRN263, containing approximately 2.5 kb of hTERT promoter sequence, is similar to pGRN150, but contains a neomycin gene as selection marker. pGRN267 contains an EcoRI-FseI PCR fragment with the tk gene cloned into the EcoRI-FseI sites of pGRN264. pGRN264, containing approximately 210 bp of hTERT promoter sequence, is similar to pGRN176, but contains a neomycin gene as selection marker. pGRN268 contains an EcoRI-XbaI PCR fragment with the tk gene cloned into the EcoRI-XbaI (unmethylated) sites of pGRN265. pGRN265, containing approximately 90 bp of hTERT promoter sequence, is similar to pGRN175, but contains a neomycin gene as selection marker.
(§3) These hTERT promoter/tk constructs, pGRN266, pGRN267 and pGRN268, were re-introduced into mammalian cells and tk/+stable clones (and/or mass populations) were selected. […] Ganciclovir treatment had no effect on normal BJ cells.

normal BJ cells = experiment: Ganciclovir treatment in vitro of normal cells carrying hTERT promoter/tk constructs; format: cell-based
Method: as §2, §3

hES lines H1 and H7 = experiment: Comparison of different hES lines, total cell number after pGRN376 plus GCV; format: cell-based, human; details: two hES lines
Method: Undifferentiated hES of lines designated Hi and H7 cells were plated into 24 well plates (1 confluent well of a 6 well plate split into 24 wells of a 24 well plate). […] Four h after addition of the viral vector, medium was exchanged for new mEF-CM; some wells received medium supplemented with 20 μM GCV. Cells exposed to GCV were re-fed with mEF-CM containing GCV daily for 3 days. On day 4 after the initiation of GCV treatment, wells were harvested and analyzed by flow cytometry to assess changes in total cell number.

[4] = system: Undifferentiated H1 cells; experiment: Total cell number of undifferentiated H1 hES cells by flow cytometry after TPAC vector and/or GCV; format: cell-based, human; details: GCV alone, 30 μM
Method: as §1

hES cells = experiment: Neuron formation from hES cells with neurotrophin growth factors (β-tubulin positive cell count); format: cell-based, human; details: 7 days of differentiation
Method: The effect of several members of the neurotrophin growth factor family was examined. hES cells were differentiated by harvesting with collagenase, dissociating, and reseeding onto poly-ornithine coated cover slips. The cells were plated into DMEM/F12+N2+10% FBS overnight. The following day, the serum was removed from the medium and replaced with 10 ng/mL human bFGF and the growth factor being tested. After 24 hours, bFGF was removed from the medium. These cultures were fed every other day. They were fixed after 7 days of differentiation and immunostained for analysis. The number of neurons was evaluated by counting cells positive for β-tubulin. Cultures maintained in the presence of 10 ng/mL brain derived neurotrophic factor (BDNF) formed approximately 3-fold more neurons than the control cultures. Cultures maintained in neurotrophin-3 (1 ng/mL) formed approximately 2-fold more neurons than control cultures.

In the case of C[S+](C)[O-] [dimethyl sulfoxide], the “expression of hTERT” value (hTERT expression) is reported as “markedly decreased”.

For Nc1nc(O)c2ncn(COC(CO)CO)c2n1 [GCV, ganciclovir], the “sensitivity to GCV after TPAC vector treatment” value (H9 cell line) was “highly sensitive”, the “cells in ES gate” value ([1]; day 2 (control 85%)) was 75% and the “cells in ES gate” value ([1]; day 3 (control 82%)) was 68%. For the same molecule, the “cells in ES gate” value ([1]; day 4 (control 65%)) was 50%, the “optimal GCV concentration” value [2] was ~20 µM and the “effect of ganciclovir on tk/+ cells” value [3] was “selective destruction of all tumor lines tested”. The effect of ganciclovir (normal BJ cells) was “no effect”, the “sensitivity to GCV after treatment with the TPAC vector” value (hES lines H1 and H7) was “sensitive” and the “cells as percent of the control wells” value ([4]; day 2) was “approximately 55%”. The “cells as percent of the control wells” value ([4]; day 4) was 40%.

B1: BDNF: brain derived neurotrophic factor, member of the neurotrophin growth factor family (protein, UniProt P23560 19-247, looked up)
Neurotrophic factor BDNF …: APMKEANIRGQGGLAYPGVRTHGTLESVNGPKAGSRGLTSLADTFEHVIEELLDEDQKVRPNEENNKDADLYTSRVMLSSQVPLEPPLLFLLEEYKNYLDAANMSMRVRRHSDPARRGELSVCDSISEWVTAADKKTAVDMSGGTVTVLEKVPVSKGQLKQYFYETKCNPMGYTKEGCRGIDKRHWNSQCRTTQSYVRALTMDSKKRIGWRFIRIDTSCVCTLTIKRGR
For B1, the “neurons formed relative to control cultures” value (hES cells; 10 ng/mL) was “approximately 3 fold”.

B2: neurotrophin-3: member of the neurotrophin growth factor family (protein, UniProt P20783 139-257, looked up)
Neurotrophin-3: YAEHKSHRGEYSVCDSESLWVTDKSSAIDIRGHQVTVLGEIKTGNSPVKQYFYETRCKEARPVKNGCRGIDDKHWNSQCKTSQTYVRALTSENNKLVGWRWIRIDTSCVCALSRKIGRT
For B2, the “neurons formed relative to control cultures” value (hES cells; 1 ng/mL) was “approximately 2 fold”.
